In patent US4826856A, “Calcium antagonistic dihydropyridine derivative” (Yason s.r.l., priority 1985, dated 1989):
Where two headings read alike, the source gives them in different places.

Experiments:
post-oligoemic rats = test: Transient cerebral oligoemia in the rat, cerebral water, K+ and Ca++ content; type: in vivo; conditions: for overall activity in cerebral oligoemia: p.o.
Protocol: Transient cerebral oligoemia in the rat
The method described by Borzeix in Circulation et Metabolisme du Cerveau 1, 63-79, John Libbey Eurotext Publ. […] The animals were treated by the oral route with the tested drugs twice a day, starting one hour after the ligation and for 3 days, in scalar doses.
The last dose, at the 71th hour after the occlusion, preceeded by one hour the sacrifice of the animal, whose brain was subjected to the determination of the H2 O, K^+ and Ca^++ content.

Rat thoracic aorta = test: Inhibition of the contractile response of rat thoracic aorta strips in vitro; conditions: for EC50: Rattus norvegicus
Protocol: 1. Inhibition of the contractile response of arterial vessels in vitro
Aortic strips (3 mm wide) were dissected from rat thoracic aorta and bathed in a Krebs-Henseleit solution bubbled with O2 :CO2 (95:5) at 38° C., under a tension of 2 g. After a 30-minutes stabilization period, a contraction was induced by adding either KCl (118 mM) or noradrenaline (10^-5 M.l^-1) in a calcium-free medium (Na EDTA 0.1 mM.l^-1) or noradrenaline (10^-5 M.l^-1) after readmission of calcium (CaCl2 1.25 mM.l^-1).

Sprague-Dawley rats [1] = test: Ventricular arrhythmias after re-circulation; type: in vivo, rat; conditions: 5 mg/kg p.o.
Protocol: (§1) Ventricular arrhythmias after coronary artery ligation in the acute phase or during the period of re-circulation
(§2) Sprague-Dawley rats were subjected to ligation of the left coronary artery according to the method of Clark et al. in J. Pharmacol. Methods 3, 357-368, 1980. The drugs were administered by gastric tube 30 minutes before the ligation. By means of a continuous electrocardiographic recording, the ventricular arrhythmias such as ectopic beats (EB), ventricular tachycardia (VT), ventricular fibrillation (VF) for 30 minutes after ligation, were recorded.

SHR aorta = SHR aorta pretreatment study (PE or K+ contraction); design: species or system spontaneously hypertensive rat (SHR)
Protocol: 1.3. SHR aorta--Pretreatment study
SHR aorta were treated with either PE(1 μM) or high potassium (K^+, 80 mM) and the resulting contraction was allowed to sustain for 15 Minutes. After wash out and equilibration (1 hour), tissues were pretreated with a single concentration of either YS 201 or nifedipine. After a 30-minutes equilibration time, tissues were again challenged with either PE or K^+ and the resultant contraction compared to the initial contraction. Contractile effect was measured at 15 minutes after the addition of the agonist (PE or K^+).

Sprague-Dawley rats [2] = test: Ventricular arrhythmias during coronary artery ligation period; type: in vivo, rat; design: EBs, mean value of indices + SEM / VT, mean value of indices + SEM / VF, mean value of indices + SEM: scale not given here
Protocol: as §1, §2

[3] = Pharmacokinetics and bioavailability in dogs; type: in vivo; conditions: in vivo, 10 mg/kg, dog
Protocol: YS 201 hydrochloride was intravenously and orally administered to dogs at 1 and 10 mg/kg respectively.

[4] = noradrenaline 10^-5 M.l^-1, calcium-free medium, read-out: EC50, NA - Ca++ contraction, rat aorta
[5] = noradrenaline 10^-5 M.l^-1 after readmission of calcium (CaCl2 1.25 mM.l^-1), read-out: EC50, NA + Ca++ contraction, rat aorta

COCCOC(=O)C1=C(C)NC(C)=C(C(=O)OC(C)C)C1c1cccc([N+](=O)[O-])c1 (stereo not drawn) [nimodipine]
Cerebral content of K+ (post-oligoemic rats; 0.5 mg/kg p.o.): 442.0 ± 22.40 mmol · kg^-1 dry weig | Cerebral content of H2O (post-oligoemic rats; 1.5 mg/kg p.o.): 79.3 ± 0.40% | overall activity in cerebral oligoemia (post-oligoemic rats): fail | EC50 (Rat thoracic aorta; [4]): 100 µM | EC50 (Rat thoracic aorta; [5]): 100 µM

COc1ccc([C@@H]2Sc3ccccc3N(CCN(C)C)C(=O)[C@@H]2OC(C)=O)cc1 [diltiazem, reference compound]
overall activity in cerebral oligoemia (post-oligoemic rats): good activity | Death rate % (Sprague-Dawley rats [1]): 27.3% | EBs, mean value of indices + SEM (Sprague-Dawley rats [1]): 68.9 ± 32.12 | VF % (Sprague-Dawley rats [1]): 45.5% | VF, mean value of indices + SEM (Sprague-Dawley rats [1]): 8.8 ± 4.64 | VT, mean value of indices + SEM (Sprague-Dawley rats [1]): 4.2 ± 2.54

COC(=O)C1=C(C)NC(C)=C(C(=O)OC)C1c1ccccc1[N+](=O)[O-] [nifedipine]
inhibition of K+-induced contractions, SHR aortic strips (SHR aorta): extremely potent inhibitors | Death rate % (Sprague-Dawley rats [2]; 1.0 mg/kg p.o.): 0% | EBs, mean value of indices + SEM (Sprague-Dawley rats [2]; 1.0 mg/kg p.o.): 70.0 ± 24.72 | VF % (Sprague-Dawley rats [2]; 1.0 mg/kg p.o.): 80% | VF, mean value of indices + SEM (Sprague-Dawley rats [2]; 1.0 mg/kg p.o.): 1.1 ± 0.55 | VT, mean value of indices + SEM (Sprague-Dawley rats [2]; 1.0 mg/kg p.o.): 4.4 ± 2.22 | Death rate % (Sprague-Dawley rats [2]; 1.5 mg/kg p.o.): 20.0% | EBs, mean value of indices + SEM (Sprague-Dawley rats [2]; 1.5 mg/kg p.o.): 40.5 ± 20.19 | VF % (Sprague-Dawley rats [2]; 1.5 mg/kg p.o.): 60% | VF, mean value of indices + SEM (Sprague-Dawley rats [2]; 1.5 mg/kg p.o.): 1.7 ± 0.77 | VT, mean value of indices + SEM (Sprague-Dawley rats [2]; 1.5 mg/kg p.o.): 2.1 ± 1.75

COc1ccc(CCN(C)CCCC(C#N)(c2ccc(OC)c(OC)c2)C(C)C)cc1OC (stereo not drawn) [verapamil]
overall activity in cerebral oligoemia (post-oligoemic rats): good activity

CCOC(=O)C1=C(C)NC(C)=C(C(=O)OC)C1c1cccc([N+](=O)[O-])c1 (stereo not drawn) [nitrendipine]
EC50 (Rat thoracic aorta; [5]): 100 µM | activity on contractions induced by noradrenaline in Ca++-free medium vs YS 201 (Rat thoracic aorta; rat aorta): slightly more active than YS 201

COC(=O)C1=C(C)NC(C)=C(C(=O)OCCN(C)Cc2ccccc2)C1c1cccc([N+](=O)[O-])c1 (stereo not drawn) [nicardipine]
Cerebral content of Ca++ (post-oligoemic rats; 1 mg/kg p.o.): 18.4 ± 7.04 mmol · kg^-1 dry weig | Cerebral content of K+ (post-oligoemic rats; 1 mg/kg p.o.): 460.0 ± 18.96 mmol · kg^-1 dry weig | Cerebral content of Ca++ (post-oligoemic rats; 3 mg/kg p.o.): 19.4 ± 5.0 mmol · kg^-1 dry weig | Cerebral content of H2O (post-oligoemic rats; 3 mg/kg p.o.): 79.2 ± 0.42% | overall activity in cerebral oligoemia (post-oligoemic rats): fail | EC50 (Rat thoracic aorta; [4]): 100 µM | AUC ([3]; po, same dose, read-out: AUC (converted)): 1280 ng·h/mL | Cmax ([3]; oral, read-out: maximum concentration (Cmax)): 220 ng/mL | Death rate % (Sprague-Dawley rats [2]; 0.5 mg/kg p.o.): 0% | EBs, mean value of indices + SEM (Sprague-Dawley rats [2]; 0.5 mg/kg p.o.): 10.9 | VF % (Sprague-Dawley rats [2]; 0.5 mg/kg p.o.): 66.7% | VF, mean value of indices + SEM (Sprague-Dawley rats [2]; 0.5 mg/kg p.o.): 2.5 | VT, mean value of indices + SEM (Sprague-Dawley rats [2]; 0.5 mg/kg p.o.): 2.5 | Death rate % (Sprague-Dawley rats [2]; 1.0 mg/kg p.o.): 33.3% | EBs, mean value of indices + SEM (Sprague-Dawley rats [2]; 1.0 mg/kg p.o.): 22.0 | VF % (Sprague-Dawley rats [2]; 1.0 mg/kg p.o.): 100% | VF, mean value of indices + SEM (Sprague-Dawley rats [2]; 1.0 mg/kg p.o.): 0.9 | VT, mean value of indices + SEM (Sprague-Dawley rats [2]; 1.0 mg/kg p.o.): 0.5 | Death rate % (Sprague-Dawley rats [2]; 2.0 mg/kg p.o.): 25.0% | EBs, mean value of indices + SEM (Sprague-Dawley rats [2]; 2.0 mg/kg p.o.): 31.9 | VF % (Sprague-Dawley rats [2]; 2.0 mg/kg p.o.): 75% | VF, mean value of indices + SEM (Sprague-Dawley rats [2]; 2.0 mg/kg p.o.): 1.2 | VT, mean value of indices + SEM (Sprague-Dawley rats [2]; 2.0 mg/kg p.o.): 0.7
